For 21 molecules, Dmax, inhibition and IC50 results are on record in US11236090B2, “Substituted glutarimides as CDK inhibitors” (SHANGHAI MEIZER PHARMACEUTICALS CO., LTD., priority 2017, dated 2022).

Each structure is given as a SMILES string.

The term Dmax denotes the largest share of the target that was removed. Low readings indicate shallow degradation, high ones deep degradation. What is called inhibition is the change of the read-out against control, counted positive when it falls. A high value points to strong suppression. The IC50 is the concentration that inhibits the measured activity by half.

The target of experiment [1] is T1, CDK4 (Homo sapiens, UniProt P11802). The experiment is described as follows: CDK4 protein degradation activity by Western blot in MCF-7 cells. The format is cell-based. Set-up: host or cells: MCF-7. Particulars: MCF7, compound 1 μM, 24 hours. The protocol: (§1) Cell lines: MCF-7 cell lines (human breast cancer cells, available from ATCC) were cultured in MEM medium containing 10% calf serum in a 37° C., 5% CO2, and saturated humidity incubator. DMSO control group and compound intervention group (1 μM) were set. Cells were collected after the treatment for 24 hours, then 100 μL of pre-chilled cell lysate was added and cells were lysed on ice for 30 minutes, total cell protein was extracted, and protein concentration was determined and quantified by bicinchoninic acid method. After routine gelatinization, loading, electrophoresis, then transferring to membrane and blocking, rabbit anti-human CDK4 (1:450) and rabbit anti-human CDK6 (1:150) were added and incubated at 4° C. overnight. The mixture was rinsed and then secondary antibody IgG (1:5000) was added. After the rinsing it was developed by the ECL developing solution, the Bio-Rad gel imaging system was used for scanning and imaging, and the computer software was used for analysis. […] (GAPDH) was used as an internal control. Image J software was used to analyze the gray scale of each band to calculate the degradation rate of the compound to degrade CDK4/6 protein.
For orientation: In western blotting, separated proteins are transferred to a membrane and probed.
Target sequence in this assay (P11802 whole entry): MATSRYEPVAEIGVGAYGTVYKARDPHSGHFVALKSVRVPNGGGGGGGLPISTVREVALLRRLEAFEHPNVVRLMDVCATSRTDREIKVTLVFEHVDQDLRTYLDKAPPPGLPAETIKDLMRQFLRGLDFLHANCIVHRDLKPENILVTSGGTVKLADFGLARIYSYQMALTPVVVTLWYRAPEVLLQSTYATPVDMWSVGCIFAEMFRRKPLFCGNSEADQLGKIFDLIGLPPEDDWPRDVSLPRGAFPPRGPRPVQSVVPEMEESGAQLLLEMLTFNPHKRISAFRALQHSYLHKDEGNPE

In experiment [2] the target is T2, CDK6 (Homo sapiens, UniProt Q00534). Briefly: CDK6 protein degradation activity by Western blot in MCF-7 cells. In kind it is cell-based. Set-up: host or cells: MCF-7. Particulars: MCF7, compound 1 μM, 24 hours. How it is done:
as §1
Target sequence in this assay (Q00534 whole entry): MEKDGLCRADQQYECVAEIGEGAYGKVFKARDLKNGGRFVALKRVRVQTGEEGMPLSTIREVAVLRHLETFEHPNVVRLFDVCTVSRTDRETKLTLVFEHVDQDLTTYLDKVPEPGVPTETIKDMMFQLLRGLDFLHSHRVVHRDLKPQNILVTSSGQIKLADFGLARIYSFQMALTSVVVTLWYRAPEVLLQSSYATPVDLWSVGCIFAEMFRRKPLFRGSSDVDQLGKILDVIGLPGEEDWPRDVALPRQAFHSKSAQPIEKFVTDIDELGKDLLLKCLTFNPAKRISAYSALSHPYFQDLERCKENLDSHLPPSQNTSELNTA

Experiment [3] deals with T2, CDK6. The experiment is described as follows: CDK6 inhibition by Caliper assay. The format is biochemical. Particulars: compound 100 nM. How it is done:
(§2) The experimental steps were as follows:
(§3) Preparation of 1×kinase reaction buffer (50 mM HEPES, PH 7.5; 0.0015% Brij-35) and kinase reaction termination solution (100 mM HEPES, PH 7.5; 0.0015% Brij-35; 0.2% Coating Reagent; 50 mM EDTA) preparation of experimental samples: 100 μL of 5 μM sample solution (dissolved in 100% DMSO) was added to a 96-well plate to obtain a 50×sample solution. As controls, two wells containing only 100 μL of 100% DMSO were set on the same plate. One was served as a control without samples and the other was served as a control without enzymes. 10 μL of sample and 90 μL of 1×kinase reaction buffer were added to a 96-well plate as a transfer plate. The transfer plate was shaken for 10 minutes.
(§4) Preparation of the test plate: taking 5 μL of each of the prepared samples in the 96-well transfer plate into a 384-well plate. Kinase reaction: to 5 μL of 5×compound solution (dissolved in DMSO, diluted 10 times with water) was added 10 μL of 2.5×CDK4/6 kinase solution (kinase was diluted with 1×kinase reaction buffer), which was incubated at room temperature for 10 min, and then 10 μL of 2.5×substrate peptide solution (FAM-labeled peptide and ATP were diluted with 1×kinase reaction buffer) was added. Termination of the kinase reaction: 25 μL of kinase reaction termination solution was added after being reacted at 28° C. for a period of time. The fluorescence (F) was tested on a Caliper and data was collected. The inhibition rate of kinase activity was calculated: the percent inhibition rate of kinase activity=(FDMSO control−Fsample)/(FDMSO control−Fnegative control)×100%, with DMSO as the solution control, and no kinase as the negative control.
Target sequence in this assay (Q00534 whole entry, species assumed): as the sequence (Q00534 whole entry) above
Target sequence in this assay (P30281 whole entry partner, species assumed): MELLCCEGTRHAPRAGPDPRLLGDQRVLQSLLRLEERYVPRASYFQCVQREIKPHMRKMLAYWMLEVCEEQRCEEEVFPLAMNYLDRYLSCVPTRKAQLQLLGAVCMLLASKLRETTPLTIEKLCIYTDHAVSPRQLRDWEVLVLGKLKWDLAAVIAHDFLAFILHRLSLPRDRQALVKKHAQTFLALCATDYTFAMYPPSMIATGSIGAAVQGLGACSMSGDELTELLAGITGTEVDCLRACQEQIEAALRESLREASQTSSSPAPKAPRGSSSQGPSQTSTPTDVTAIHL

The target in experiment [4] is T1, CDK4. Briefly: CDK4 inhibition by Caliper assay. Particulars: compound 100 nM. The format is biochemical. The protocol:
as §2, §3, §4
Target sequence in this assay (P11802 whole entry, species assumed): as the sequence (P11802 whole entry) above
Target sequence in this assay (P30281 whole entry partner, species assumed): as the sequence (P30281 whole entry partner, species assumed) above

For experiment [5], the system named is MCF-7 cells. Briefly: Inhibition of proliferation of MCF-7 cells by MTT assay. In kind it is cell-based. Particulars: Homo sapiens, MCF7, 48 hours. How it is done: The inhibitory effect of the compound on the proliferation of MCF-7 cells (commercially available from ATCC) was determined by the MTT method in vitro. […] Each compound was dissolved in dimethyl sulfoxide (DMSO) to obtain a solution with a concentration of 10 mM, and then diluted to the desired concentration with a phosphate buffer solution. The solution was added to the above 96-well plate. Each concentration has 2 wells with 10 μl per well. Each concentration was tested in duplicate. As a control, DMSO was diluted in the corresponding gradient and then added to the plate. After the 96-well plate was cultured in a 37° C., 5% CO2 cell incubator for 48 hours, 20 μl of MTT solution in 5 mg/ml was added to each well, and it was cultured in the incubator for another 3 to 4 hours. 100 μl of lysate was added to each well and the cells were further incubated overnight in the incubator to fully dissolve the formazan crystals generated. The light absorption value at 492 nm was measured. The relative survival rate of the cells after the compound treatment was calculated based on the light absorption value. The IC50 of the compound against MCF-7 cells was calculated by software.
For orientation: Formazan colour is commonly taken as a measure of viable cells.

Experiment [6] has as its system T47D cells. Briefly: Inhibition of proliferation of T47D cells by CCK8 assay. The format is cell-based. Particulars: Homo sapiens, CCK8, 72 hours. The protocol:
The inhibitory effect of the compound on the proliferation of T47D cells (commercially available from ATCC) was determined by the CCK8 method in vitro. The experimental steps were as follows: T47D cells were cultured in 1640 medium of 10% calf serum, seeded in a 96-well plate with 1.5×10^5/ml, and placed in a 37° C., 5% CO2 incubator. Each compound or the positive drug (Ribociclib) was dissolved in dimethyl sulfoxide (DMSO) to obtain a solution with a concentration of 100 mM, and then diluted to the desired concentration with the culture medium. The solutions were then added to the above 96-well plates. Each concentration has 3 wells with 50 μl per well. As a control, DMSO was diluted in the corresponding gradient and then added to the plate. After the 96-well plate was cultured in a 37° C., 5% CO2 cell incubator for 72 hours, 110 μl of CCK8 solution in 9% was added to each well, and it was cultured in the incubator for another 4 hours. The light absorption value at 450 nm was measured. The relative survival rate of the cells after the compound treatment was calculated based on the light absorption value. The IC50 of the compound against T47D cells was calculated by software.

With `CC(=O)c1c(C)c2cnc(Nc3ccc(N4CCN(CCCCCNC(=O)COc5cccc6c5C(=O)N(C5CCC(=O)NC5=O)C6=O)CC4)cn3)nc2n(C2CCCC2)c1=O` (stereo not drawn) [Compound 38], the Dmax at 1 µM in experiment [1] and in experiment [2] was > 90% each time.
Take `CN(C)C(=O)c1cc2cnc(Nc3ccc(N4CCN(CCOCCOCCOCCOc5cccc6c5C(=O)N(C5CCC(=O)NC5=O)C6=O)CC4)cn3)nc2n1C1CCCC1` (stereo not drawn) [Compound 20]: the Dmax at 1 µM in experiment [1] and in experiment [2] was 50 to 90% throughout.
Turning to `CN(C)C(=O)c1cc2cnc(Nc3ccc(N4CCN(CCOCCNC(=O)COc5cccc6c5C(=O)N(C5CCC(=O)NC5=O)C6=O)CC4)cn3)nc2n1C1CCCC1` (stereo not drawn) [Compound 48], the Dmax at 1 µM in experiment [1] is > 90%; in experiment [2], 50 to 90%.
With `CN(C)C(=O)c1cc2cnc(Nc3ccc(N4CCN(CCOCCOCCOc5cccc6c5C(=O)N(C5CCC(=O)NC5=O)C6=O)CC4)cn3)nc2n1C1CCCC1` (stereo not drawn) [Compound 19], the maximal degradation (Dmax) at 1 µM was > 90% in experiment [1] and 50 to 90% in experiment [2]. In addition, the inhibition at 0.1 µM in experiment [3] was 43%; in experiment [4], 80%.
As to `CC(=O)c1c(C)c2cnc(Nc3ccc(N4CCN(CCOCCOCCNc5cccc6c5C(=O)N(C5CCC(=O)NC5=O)C6=O)CC4)cn3)nc2n(C2CCCC2)c1=O` (stereo not drawn) [Compound 15], the IC50 in experiment [5] was found to be 220 nM. Besides, the inhibition at 0.1 µM in experiment [3] stood at 69%; in experiment [4], 91%.
On to `CN(C)C(=O)c1cc2cnc(Nc3ccc(N4CCNCC4)cn3)nc2n1C1CCCC1` [Ribociclib, reference compound], for which, in experiment [6], the half-maximal inhibitory concentration (IC50) came to 68.7 µM.
Turning to `CC(=O)c1c(C)c2cnc(Nc3ccc(N4CCN(C(=O)COCCOCCNc5cccc6c5C(=O)N(C5CCC(=O)NC5=O)C6=O)CC4)cn3)nc2n(C2CCCC2)c1=O` (stereo not drawn) [Compound 11], the inhibition at 0.1 µM in experiment [3] was 79%; in experiment [4], 93%.
As for `CC(=O)c1c(C)c2cnc(Nc3ccc(N4CCN(CCOCCOCCOCCNc5cccc6c5C(=O)N(C5CCC(=O)NC5=O)C6=O)CC4)cn3)nc2n(C2CCCC2)c1=O` (stereo not drawn) [Compound 16], the greatest degradation seen (Dmax) at 1 µM in experiment [1] and in experiment [2] was 50 to 90% each time. For the same molecule, in experiment [5], inhibition was half-maximal at 300 nM (IC50). Further, the inhibition at 0.1 µM in experiment [3] was 68%; in experiment [4], 97%.
For `CC(=O)c1c(C)c2cnc(Nc3ccc(N4CCN(CCCCOc5cccc6c5C(=O)N(C5CCC(=O)NC5=O)C6=O)CC4)cn3)nc2n(C2CCCC2)c1=O` (stereo not drawn) [Compound 24], the Dmax at 1 µM in experiment [1] and in experiment [2] was > 90% throughout. The inhibition at 0.1 µM was 91% in experiment [3] and 96% in experiment [4].
Turning to `CC(=O)c1c(C)c2cnc(Nc3ccc(N4CCN(CCCCCCCCOc5cccc6c5C(=O)N(C5CCC(=O)NC5=O)C6=O)CC4)cn3)nc2n(C2CCCC2)c1=O` (stereo not drawn) [Compound 25], the greatest degradation seen (Dmax) at 1 µM in experiment [1] and in experiment [2] was 50 to 90% throughout.
As for `CN(C)C(=O)c1cc2cnc(Nc3ccc(N4CCN(CCCCCNC(=O)COc5cccc6c5C(=O)N(C5CCC(=O)NC5=O)C6=O)CC4)cn3)nc2n1C1CCCC1` (stereo not drawn) [Compound 47], the maximal degradation (Dmax) at 1 µM is > 90% in experiment [1] and 50 to 90% in experiment [2].
As to `CN(C)C(=O)c1cc2cnc(Nc3ccc(N4CCN(CCOCCOCCNc5cccc6c5C(=O)N(C5CCC(=O)NC5=O)C6=O)CC4)cn3)nc2n1C1CCCC1` (stereo not drawn) [Compound 17], the greatest degradation seen (Dmax) at 1 µM in experiment [1] and in experiment [2] was 50 to 90% throughout. The inhibition at 0.1 µM is 25% in experiment [3] and 82% in experiment [4].
In the case of `CC(=O)c1c(C)c2cnc(Nc3ccc(N4CCN(CCCOCCNc5cccc6c5C(=O)N(C5CCC(=O)NC5=O)C6=O)CC4)cn3)nc2n(C2CCCC2)c1=O` (stereo not drawn) [Compound 27], the Dmax at 1 µM in experiment [1] and in experiment [2] was 50 to 90% each time.
As to `CN(C)C(=O)c1cc2cnc(Nc3ccc(N4CCN(CCCNC(=O)COc5cccc6c5C(=O)N(C5CCC(=O)NC5=O)C6=O)CC4)cn3)nc2n1C1CCCC1` (stereo not drawn) [Compound 46], the values for the Dmax at 1 µM in experiment [1] and in experiment [2] were > 90% and 50 to 90%, respectively.
In the case of `CC(=O)c1c(C)c2cnc(Nc3ccc(N4CCN(CCOCCOCCOCCOc5cccc6c5C(=O)N(C5CCC(=O)NC5=O)C6=O)CC4)cn3)nc2n(C2CCCC2)c1=O` (stereo not drawn) [Compound 21], the Dmax at 1 µM in experiment [1] and in experiment [2] was 50 to 90% throughout. The molecule further displayed a 50% inhibitory concentration (IC50) in experiment [5] of 160 nM. In addition, the inhibition at 0.1 µM in experiment [3] turned out to be 97%; in experiment [4], 93%.
On to `CC(=O)c1c(C)c2cnc(Nc3ccc(N4CCN(S(=O)(=O)CCCCCOc5cccc6c5C(=O)N(C5CCC(=O)NC5=O)C6=O)CC4)cn3)nc2n(C2CCCC2)c1=O` (stereo not drawn) [Compound 14], for which the inhibition at 0.1 µM in experiment [3] came out at 85%; in experiment [4] it was 92%.
As for `CC(=O)c1c(C)c2cnc(Nc3ccc(N4CCN(CCOCCOCCOc5cccc6c5C(=O)N(C5CCC(=O)NC5=O)C6=O)CC4)cn3)nc2n(C2CCCC2)c1=O` (stereo not drawn) [Compound 8], the greatest degradation seen (Dmax) at 1 µM in experiment [1] and in experiment [2] was 50 to 90% in each case. In experiment [5], this molecule returned a half-inhibitory concentration (IC50) of 200 nM. Besides, the figures for the inhibition at 0.1 µM in experiment [3] and in experiment [4] were 84% and 82%, respectively.
For `CC(=O)c1c(C)c2cnc(Nc3ccc(N4CCN(CCCCCCOc5cccc6c5C(=O)N(C5CCC(=O)NC5=O)C6=O)CC4)cn3)nc2n(C2CCCC2)c1=O` (stereo not drawn) [Compound 23], the Dmax at 1 µM in experiment [1] and in experiment [2] was 50 to 90% in each case.
`CN(C)C(=O)c1cc2cnc(Nc3ccc(N4CCN(CCOCCOCCOCCNc5cccc6c5C(=O)N(C5CCC(=O)NC5=O)C6=O)CC4)cn3)nc2n1C1CCCC1` (stereo not drawn) [Compound 18]: the Dmax at 1 µM in experiment [1] and in experiment [2] was > 90% in each case. The inhibition at 0.1 µM in experiment [3] was 29%; in experiment [4], 80%. Further, 8.1 µM corresponded to half-maximal inhibition in experiment [6] (IC50).
In the case of `CC(=O)c1c(C)c2cnc(Nc3ccc(N4CCN(CCCCCCNc5cccc6c5C(=O)N(C5CCC(=O)NC5=O)C6=O)CC4)cn3)nc2n(C2CCCC2)c1=O` (stereo not drawn) [Compound 26], the Dmax at 1 µM in experiment [1] and in experiment [2] was 50 to 90% each time.
Take `CC(=O)c1c(C)c2cnc(Nc3ccc(N4CCN(CCOCCCNc5cccc6c5C(=O)N(C5CCC(=O)NC5=O)C6=O)CC4)cn3)nc2n(C2CCCC2)c1=O` (stereo not drawn) [Compound 28]: the Dmax at 1 µM in experiment [1] and in experiment [2] was 50 to 90% each time.
